ChEMBL document CHEMBL1155983, “Synthesis of novel [1,2]-diamines with antituberculosis activity” (Bioorg Med Chem Lett, 2009)
Converted amounts (≈) assume the structure as drawn.

system: not listed separately; assay: Oral bioavailability in rat; type: ADME, organism-based; conditions: in vivo

| Structure (SMILES) | bioavailability |
| --- | --- |
| CC(C)=CCC/C(C)=C/CNCCNC1C2CC3CC(C2)CC1C3.Cl.Cl (centres undefined) | 12% |

system: Mycobacterium tuberculosis; assay: Antituberculosis activity against Mycobacterium tuberculosis H37Rv by microbroth dilution assay; type: functional; conditions: not given

| Structure (SMILES) | MIC |
| --- | --- |
| CC(C)=CCC/C(C)=C/CNCCNC1C2CC3CC(C2)CC1C3.Cl.Cl (centres undefined) | 0.6 µM |
| CC(C)=CCC/C(C)=C/CNCCNC1C2CC3CC(C2)CC1(O)C3 (centres undefined) | 0.6 µM (≈ 0.208 µg/mL) |
| CC(C)=CCC/C(C)=C/CNCCNC1C2CC3CC1CC(F)(C3)C2 (centres undefined) | 0.6 µM (≈ 0.209 µg/mL) |
| CC(C)=CCC/C(C)=C/C(C)NCCNC1C2CC3CC(C2)CC1C3 (centres undefined) | 1.2 µM (≈ 0.414 µg/mL) |
| CCC(/C=C(\C)CCC=C(C)C)NCCNC1C2CC3CC(C2)CC1C3 (centres undefined) | 1.2 µM (≈ 0.43 µg/mL) |
| CC(C)=CCC/C(C)=C/C(Cc1ccccc1)NCCNC1C2CC3CC(C2)CC1C3 (centres undefined) | 1 µM (≈ 0.421 µg/mL) |
| COC12CC3CC(C1)C(NCCNC/C=C(\C)CCC=C(C)C)C(C3)C2 (centres undefined) | 1.7 µM (≈ 0.613 µg/mL) |
| CC(C)=CCC/C(C)=C/CNCCNC1C2CC3CC(C2)CC1(F)C3 (centres undefined) | 0.3 µM (≈ 0.105 µg/mL) |
| CC(C)=CCC/C(C)=C/CNCCNC1C2CC3CC1CC(O)(C3)C2 (centres undefined) | 8.6 µM (≈ 2.98 µg/mL) |
| COC12CC3CC(CC(C3)C1NCCNC/C=C(\C)CCC=C(C)C)C2 (centres undefined) | 0.5 µM (≈ 0.18 µg/mL) |
| CC(C)=CCC/C(C)=C/C(Cc1ccc(F)cc1)NCCNC1C2CC3CC(C2)CC1C3 (centres undefined) | 3 µM (≈ 1.32 µg/mL) |
| CC(C)=CCC/C(C)=C/C(Cc1ccc(OC(F)(F)F)cc1)NCCNC1C2CC3CC(C2)CC1C3 (centres undefined) | 5.2 µM (≈ 2.62 µg/mL) |

system: not listed separately; assay: Oral bioavailability in dog; type: ADME, organism-based, Canis lupus familiaris; conditions: in vivo

| Structure (SMILES) | bioavailability |
| --- | --- |
| CC(C)=CCC/C(C)=C/CNCCNC1C2CC3CC(C2)CC1C3.Cl.Cl (centres undefined) | 3.8% |
